From ChEMBL document CHEMBL4043272, “Synthesis and in vitro biological evaluation of new pyrimidines as glucagon-like peptide-1 receptor agonists” (Bioorg Med Chem Lett, 2017)
The source made the active and inactive calls. The calls are words filed in the database; no cut-off is given here.

Assays:
Type in all cases: cell-based
[1] = biological target: T1, Glucagon-like peptide 1 receptor (Mus musculus) (UniProt O35659); assay: Agonist activity at GLP1 receptor in mouse BetaTC6 cells assessed as increase in glucose-dependent insulin secretion at 10^-15 to 10^-9 M after 120 mins by sandwich ELISA
T1 sequence (whole entry): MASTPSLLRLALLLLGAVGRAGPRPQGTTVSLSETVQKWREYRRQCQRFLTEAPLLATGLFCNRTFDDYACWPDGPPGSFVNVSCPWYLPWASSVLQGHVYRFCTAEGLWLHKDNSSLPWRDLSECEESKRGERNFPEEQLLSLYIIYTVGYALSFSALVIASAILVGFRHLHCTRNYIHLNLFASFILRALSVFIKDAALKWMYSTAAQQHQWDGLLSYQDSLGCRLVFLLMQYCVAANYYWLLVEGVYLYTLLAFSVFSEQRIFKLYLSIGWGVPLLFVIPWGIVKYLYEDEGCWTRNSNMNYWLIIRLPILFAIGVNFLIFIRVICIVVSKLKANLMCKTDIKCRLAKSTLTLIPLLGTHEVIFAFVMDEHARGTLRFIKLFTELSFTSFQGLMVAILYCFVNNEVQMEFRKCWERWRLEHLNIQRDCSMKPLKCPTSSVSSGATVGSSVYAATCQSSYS

[2] = biological target: T1, Glucagon-like peptide 1 receptor (Mus musculus); assay: Agonist activity at GLP1 receptor in mouse BetaTC6 cells assessed as increase in insulin secretion at 10^-15 to 10^-12 M after 120 mins by sandwich ELISA
[3] = biological target: T1, Glucagon-like peptide 1 receptor (Mus musculus); assay: Agonist activity at GLP1 receptor in mouse BetaTC6 cells assessed as increase in glucose-dependent insulin secretion after 120 mins by sandwich ELISA
[4] = biological target: T1, Glucagon-like peptide 1 receptor (Mus musculus); assay: Agonist activity at GLP1 receptor in mouse BetaTC6 cells assessed as increase in insulin secretion at 10^-15 to 10^-9 M after 120 mins by sandwich ELISA
[5] = biological target: T1, Glucagon-like peptide 1 receptor (Mus musculus); assay: Agonist activity at GLP1 receptor in mouse BetaTC6 cells assessed as increase in glucose-dependent insulin secretion at 10^-15 M after 120 mins by sandwich ELISA

Activity [1]	Activity [2]	Activity [3]	Activity [4]	Activity [5]	SMILES
inactive	Active				O=C(Nc1nccc(N/N=C/c2ccc(F)cc2)n1)NC1CCCC1
		inactive	Active		Cc1ccc(S(=O)(=O)NC(=O)Nc2ccnc(N)n2)cc1
	Active			Active	c1ccc(CNc2ccnc(NC3CCCCCC3)n2)cc1
